One test relates to Karpas-299 cells. Briefly: Karpas-299 cell proliferation assay (CellTiter-Glo). The test is classed as cell-based. The settings on record: Homo sapiens, 72 h; Karpas-299 cell line (NPM-ALK), 3 days incubation, at least duplicate experiments; read-out: Prolif. IC50. On the procedure: The effect of inhibitors on the proliferation of Karpas-299 cells (DSMZ no. ACC 31) was determined using the following protocol. Karpas-299 cells were plated in 96-well white tissue culture treated plates (Corning 3917) in growth medium (RPMI, 10% FCS) at a density of 5000 cells/well in a total volume of 135 μL and incubated at 37° C., 5% CO2, 95% humidity overnight. The following day, one-tenth volume of a 10× concentration of compounds was added to the wells in an 8-point dilution series. Compounds were serially diluted (1:4) in DMSO from a 10 mM stock solution prior to dilution in growth media to the 10× working concentrations (5% DMSO). Final concentration of DMSO in compound-treated wells was 0.5%. Control wells containing growth media or growth media/0.5% DMSO were included in all test plates. The typical dilution range is 10 μM to 0.1 nM. Once the compounds were added to the cells, plates were incubated for 3 days at 37° C., 5% CO2 at 95% humidity. After 72 hours, all cells and reagents were equilibrated to room temperature and 15 μL of CellTiter-Glo reagent (Promega #G7573) was added to each well. Plates were shaken on a platform for 10 minutes at room temperature prior to reading luminescence. The value of the signal of the control wells was set as 100% growth and growth inhibition was expressed as percent of control. IC50 values were determined from the percent of control data using a standard four-parameter curve fit equation.
The IC50 values of exemplary compounds of the present invention determined in a cell proliferation assay using the Karpas-299 cell line according to the procedures described herein in at least duplicate experiments are abbreviated as follows and are shown in Table 5: A, IC50≦0.03 μM; B, 0.03 μM<IC50≦0.1 μM; C, 0.1 μM<IC50≦1 μM; D, 1 μM<IC50≦3 μM; ND, not determined. The Example # of Table 5 corresponds to the compound example number as illustrated in the Examples section.
The Karpas-299 cell line has a t(2;5) chromosomal translocation and expresses the NPM-ALK fusion protein, resulting in constitutively active ALK. […] Ther. 6(12):3314-22 (2007)]. With this “ALK-driven” cell line by ALK, the cell proliferation IC50 values can thus be used as surrogate for the p-ALK cell mechanistic IC50 values.
For orientation: ATP-based viability assays read luminescence as a measure of living cells.

For another test, the target named is T1, Aurora B (Homo sapiens, UniProt Q96GD4).
T1 construct: HT-29 cells grown in complete growth media; endogenous in cells; host or cells: HT-29
T1 sequence (Q96GD4 whole entry): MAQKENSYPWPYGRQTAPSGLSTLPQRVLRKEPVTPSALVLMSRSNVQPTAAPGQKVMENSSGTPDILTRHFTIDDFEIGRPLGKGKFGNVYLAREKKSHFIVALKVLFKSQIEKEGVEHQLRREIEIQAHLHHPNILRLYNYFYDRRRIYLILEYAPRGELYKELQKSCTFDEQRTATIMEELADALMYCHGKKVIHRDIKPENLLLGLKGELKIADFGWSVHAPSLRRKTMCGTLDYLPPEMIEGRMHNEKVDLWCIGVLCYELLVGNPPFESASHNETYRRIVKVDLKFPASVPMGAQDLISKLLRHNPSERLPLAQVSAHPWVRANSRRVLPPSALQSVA
Briefly: Aurora B cell mechanistic assay (HT-29), phospho-Histone H3 (Ser10) ELISA. The test is classed as cell-based. The following applies: HT-29 cell line, inhibition of phospho-Histone H3 (Ser10), at least duplicate experiments (italicized if single); read-out: Aurora B mech IC50. On the procedure:
The cellular activity of the compounds of the present invention against Aurora B may be determined by the following procedure. HT-29 cells grown in complete growth media (McCoy's 5A, 10% FCS, 1% L-glutamine) were plated into wells of a 96 well tissue culture plate (Falcon 3072) at a cell density of 4×10^4 cells/0.09 ml media/well. Cells were subsequently incubated overnight in a 5% CO2 humidified 37° C. incubator. The following day 10 μl of a 10× stock of test compound serially diluted in media was added to the cells and incubated for 1 h at 37° C. at which time Calyculin A (Cell Signaling #9902) was added at a concentration of 100 nM and cells incubated for an additional 30 minutes in a 5% CO2 humidified 37° C. incubator. Media was then aspirated and cells lysed using a Triton based lysis buffer. Lysates were transferred to a pre-coated anti-Histone H3 antibody coated plate supplied by Cell Signaling in their PathScan phospho-Histone H3 (Ser10) ELISA kit (#7155). After an overnight incubation with lysate the ELISA was continued following the manufacturer's instructions. Signal was measured on a Wallac Victor plate reader at 450 nm. DMSO control treated cells served as 100% signal and an Aurora B kinase inhibitor served as 100% inhibition. The percent inhibition of phospho-Histone H3 (Ser10) was expressed as % control. IC50 values were calculated from the percent control data using a standard four-parameter model.
The IC50 values of exemplary compounds of the present invention determined in a Aurora B cell mechanistic assay using the HT-29 cell line according to the procedures described herein in at least duplicate experiments are abbreviated as follows and are shown in Table 4: A, IC50≦0.03 μM; B, 0.03 μM<IC50≦0.1 μM; C, 0.1 μM<IC50≦1 μM; D, 1 μM<IC50≦3 μM; ND, not determined. If only data from single experiments are available, the abbreviations are italicized. The Example # of Table 4 corresponds to the compound example number as illustrated in the Examples section.
Background: In an ELISA, binding on a coated surface is turned into a signal by an enzyme label.

In general, IC50 refers to the point on the concentration scale where inhibition reaches its midpoint.

Some results are limits rather than exact numbers.

Take `Cn1cc(-c2cnc3[nH]cc(C(CF)c4c(Cl)ccc(F)c4Cl)c3c2)cn1` (centres unmarked) [Example 1, 3-[1-(2,6-Dichloro-3-fluorophenyl)-2-fluoroethyl]-5-(1-methyl-1H-pyrazol-4-yl)-1H-pyrrolo[2,3-b]pyridine]: the IC50 in the test with Karpas-299 cells and at Aurora B was 100 to 1000 nM throughout.
As to `COc1ccc(F)c(Cl)c1[C@@H](CF)c1c[nH]c2ncc(-c3cnn([C@H]4CC[C@H](O)CC4)c3)cc12` [Example 3, trans-4-(4-{3-[(1S)-1-(2-chloro-3-fluoro-6-methoxyphenyl)-2-fluoroethyl]-1H-pyrrolo[2,3-b]pyridin-5-yl}-1H-pyrazol-1-yl)cyclohexanol], the IC50 was 30 to 100 nM in the test with Karpas-299 cells and not above 30 nM on Aurora B.
On the same counts, the results for `O[C@H]1CC[C@H](n2cc(-c3cnc4[nH]cc([C@@H](CF)c5c(OC(F)F)ccc(F)c5Cl)c4c3)cn2)CC1` [Example 4, trans-4-[4-(3-{(1R)-1-[2-Chloro-6-(difluoromethoxy)-3-fluorophenyl]-2-fluoroethyl}-1H-pyrrolo[2,3-b]pyridin-5-yl)-1H-pyrazol-1-yl]cyclohexanol] are 100 to 1000 nM and 100 to 1000 nM.
On the same counts, the results for `O[C@H]1CC[C@H](n2cc(-c3cnc4[nH]cc([C@H](CF)c5c(OC(F)F)ccc(F)c5Cl)c4c3)cn2)CC1` [Example 5, trans-4-[4-(3-{(1S)-1-[2-Chloro-6-(difluoromethoxy)-3-fluorophenyl]-2-fluoroethyl}-1H-pyrrolo[2,3-b]pyridin-5-yl)-1H-pyrazol-1-yl]cyclohexanol] are not above 30 nM and not above 30 nM.

The record behind these values is patent US20140088114A1, “FUSED BICYCLIC KINASE INHIBITORS” (OSI Pharmaceuticals ,LLC, priority 2011, published 2014).
